Values quoted from earlier work, collected in patent US11686722B2, “Compositions and methods to detect molecules in a sample” (Infusense Corp., priority 2016, dated 2023).
Read-outs that look alike come from different tables or passages of the source.

Assays:
[1] = neutral pH, reverse-phase HPLC estimation
[2] = neutral pH, shake-flask methodology

Structure (SMILES)	clearance half-life (in vivo)	detectability in urine (urine)	n-octanol/water partition coefficient (KOW) [1]	n-octanol/water partition coefficient (KOW) [2]	time until metabolite appears in the urine, typical (following a dose of THC, urine) [h]	time until metabolite appears in the urine, longest (following a dose of THC, urine, can take as long as) [h]
CCCCCc1cc(O)c2c(c1)OC(C)(C)[C@@H]1CCC(C)=C[C@@H]21 [THC, Δ^9-tetrahydrocannabinol]	less than 30 minutes	not detectable in urine	9,440,000	6000		
CCCCCc1cc(O)c2c(c1)OC(C)(C)C1CCC(C(=O)O)=CC21 (stereo not drawn) [11-nor-9-carboxy-THC, 11-nor-9-carboxy-tetrahydrocannabinol]					≤ 1	≤ 4
